Several values for one entry are separate records, joined by “and”; a condition that tells them apart may be missing. Identical values can stand only once.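 Cultured in 96-well plates, cells were exposed to test compound for 48 hours across five concentrations. Abbreviation: GI50, concentration required for 50% inhibition of growth. TGI is the concentration that stops growth completely.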

Test systems include SR leukemia; SNB-19 CNS; UACC-62 melanoma; M14 melanoma; KM12 colon; UO-31 renal; NCI-H226 lung; PC-3 prostate; SF-268 CNS; EKVX NSCLC.
Holding throughout (assay): NCI anticancer screen, dose series, 48 h

`O=c1[nH]c(=O)n(C2OC(CO)C(O)C(O)C2O)cc1F` (stereo not drawn): the TGI in the assay with SR leukemia, in the assay with SNB-19 CNS, in the assay on UACC-62 melanoma, in the assay with M14 melanoma, in the assay with KM12 colon and with UO-31 renal was above 100 µM each time. In addition, the TGI in the assay on NCI-H226 lung, in the assay on PC-3 prostate, in the assay on SF-268 CNS and in the assay on EKVX NSCLC was above 100 µM in each case.
Take `CC(C)(C)c1cc(NC(=O)Cc2ccc(-c3cnc4cc(-c5cnn(CCN6CCOCC6)c5)ccc4n3)cc2)no1`: the GI50 is 0.197 µM and 0.336 µM and 0.0938 µM in the assay on SR leukemia; 2.47 µM and 2.26 µM and 0.279 µM in the assay on SNB-19 CNS; 0.26 µM and 0.364 µM and 0.0552 µM in the assay on UACC-62 melanoma; 0.202 µM and 0.37 µM and 0.0419 µM with M14 melanoma; 0.135 µM and 0.0883 µM in the assay on UO-31 renal; 0.223 µM and 0.533 µM and 0.0783 µM in the assay with NCI-H226 lung. Moreover, the GI50 is 0.481 µM and 1.02 µM and 0.135 µM in the assay on PC-3 prostate; 0.413 µM and 0.468 µM and 0.0781 µM in the assay with SF-268 CNS; 0.829 µM and 0.459 µM and 0.144 µM with EKVX NSCLC. The TGI in the assay with SR leukemia is 50 µM and > 100 µM and > 3 µM; in the assay with SNB-19 CNS, 50 µM and > 100 µM and > 3 µM; in the assay on UACC-62 melanoma it was 50 µM and > 100 µM and > 3 µM; with M14 melanoma it was 50 µM and > 100 µM and > 3 µM; with KM12 colon it was 50 µM and > 100 µM and > 3 µM; with NCI-H226 lung it was 50 µM and > 100 µM and > 3 µM. Besides, the TGI in the assay with PC-3 prostate is 50 µM and > 100 µM and > 3 µM; in the assay with SF-268 CNS, 50 µM and > 100 µM and > 3 µM; in the assay on EKVX NSCLC, 50 µM and > 100 µM and > 3 µM.
Turning to `Nc1nc(-c2cccc(Cl)c2)c(-c2ccc3ncccc3n2)s1`, the GI50 is above 25 µM with SR leukemia; above 25 µM in the assay on SNB-19 CNS; above 25 µM in the assay on UACC-62 melanoma; above 25 µM in the assay on M14 melanoma; above 25 µM in the assay with KM12 colon; 10.1 µM in the assay on UO-31 renal. Also, the GI50 in the assay with NCI-H226 lung was above 22 µM; with PC-3 prostate, above 25 µM; in the assay on SF-268 CNS, above 25 µM; with EKVX NSCLC, above 25 µM. Also, the TGI in the assay with SR leukemia, with SNB-19 CNS, with UACC-62 melanoma, with M14 melanoma, in the assay with KM12 colon and with UO-31 renal was above 25 µM each time. Moreover, the TGI with NCI-H226 lung, in the assay with PC-3 prostate, in the assay with SF-268 CNS and with EKVX NSCLC was above 25 µM each time.
For `O=C1/C(=C/c2ccc(O)cc2)CSc2ccc(Cl)cc21`, the GI50 in the assay on SR leukemia was 2.14 µM; with SNB-19 CNS, 14.1 µM; in the assay with UACC-62 melanoma, 12.2 µM; in the assay on M14 melanoma, 10 µM; in the assay on KM12 colon it was 3.59 µM; with UO-31 renal, 12.4 µM. In addition, the GI50 in the assay with NCI-H226 lung is 22.1 µM; in the assay with PC-3 prostate, 13.1 µM; in the assay on SF-268 CNS it was 15.4 µM; in the assay on EKVX NSCLC, 16.4 µM. Further, the TGI in the assay on SR leukemia is above 100 µM; in the assay on SNB-19 CNS, 27.4 µM; in the assay with UACC-62 melanoma, 26.2 µM; with M14 melanoma it was 62.2 µM; in the assay on KM12 colon, 15.7 µM; in the assay with UO-31 renal, 29.1 µM. Moreover, the TGI in the assay on NCI-H226 lung turned out to be 51.2 µM; with PC-3 prostate it was 53.8 µM; with SF-268 CNS, 41.3 µM; in the assay with EKVX NSCLC, 32.4 µM.
For the molecule `CC1(C)N=C(N)N=C(N)N1c1ccc(OCc2ccc(S(=O)(=O)F)c(Cl)c2)c(Cl)c1`, the GI50 in the assay on SR leukemia is 0.432 µM; in the assay on SNB-19 CNS, 6.76 µM; in the assay on UACC-62 melanoma, 0.74 µM; in the assay with M14 melanoma, 1.52 µM; in the assay with KM12 colon, 3.35 µM; in the assay with UO-31 renal, 46 µM. Besides, the GI50 in the assay with NCI-H226 lung is 9.72 µM; in the assay on PC-3 prostate, 0.502 µM; in the assay on SF-268 CNS, 2.85 µM; in the assay on EKVX NSCLC it was above 100 µM. Besides, the TGI in the assay on SR leukemia, in the assay on SNB-19 CNS, in the assay with UACC-62 melanoma, with M14 melanoma, in the assay on KM12 colon and in the assay with UO-31 renal was above 100 µM each time. The TGI with NCI-H226 lung, with PC-3 prostate, in the assay with SF-268 CNS and in the assay with EKVX NSCLC was above 100 µM in each case.
As for `COc1cc2c(c(OC)c1OC)-c1c(cc3c(c1OC)OCO3)C1OC2C(C)C1C` (stereo not drawn) (tested in a mixture with another compound), the TGI in the assay on SR leukemia, with SNB-19 CNS, in the assay on UACC-62 melanoma, with M14 melanoma, in the assay on KM12 colon and in the assay with UO-31 renal was above 100 µM in each case. The TGI with NCI-H226 lung, in the assay with PC-3 prostate, with SF-268 CNS and with EKVX NSCLC was above 100 µM each time.
Consider `Cc1ccc(NC(=O)c2sc3nc(C)c(C(O)c4ccccc4)cc3c2N)cc1` (stereo not drawn), for which the GI50 with SR leukemia was 0.283 µM; in the assay on SNB-19 CNS it was 0.542 µM; in the assay with UACC-62 melanoma, 0.621 µM; with M14 melanoma, 0.284 µM; with KM12 colon, 0.452 µM; in the assay on UO-31 renal, 0.72 µM. Besides, the GI50 in the assay with NCI-H226 lung was 1.27 µM; in the assay with PC-3 prostate, 0.429 µM; in the assay on SF-268 CNS, 2.47 µM; in the assay with EKVX NSCLC, 0.733 µM. In addition, the TGI with SR leukemia was above 25.6 µM; in the assay on SNB-19 CNS it was above 100 µM; with UACC-62 melanoma it was above 100 µM; in the assay on M14 melanoma, 26.1 µM; in the assay on KM12 colon, above 61.9 µM; in the assay on UO-31 renal it was 41.6 µM. Besides, the TGI with NCI-H226 lung is 41.2 µM; with PC-3 prostate it was 20.7 µM; in the assay with SF-268 CNS, above 100 µM; in the assay with EKVX NSCLC, above 100 µM.
On to `CC[C@H](C)[C@H]1O[C@]2(C=C[C@@H]1C)C[C@@H]1C[C@@H](C/C=C(\C)[C@@H](O[C@H]3C[C@H](OC)[C@@H](O[C@H]4C[C@H](OC)[C@@H](NC)[C@H](C)O4)[C@H](C)O3)[C@@H](C)/C=C/C=C3\CO[C@@H]4[C@H](O)C(C)=C[C@@H](C(=O)O1)[C@]34O)O2`, for which the GI50 is 1.49 µM in the assay with SR leukemia; 4.27 µM with SNB-19 CNS; 1.99 µM in the assay with UACC-62 melanoma; 1.93 µM in the assay with M14 melanoma; 3.1 µM in the assay on KM12 colon; 1.69 µM with UO-31 renal. Further, the GI50 in the assay with NCI-H226 lung is 4.26 µM; with PC-3 prostate, 2.78 µM; in the assay with SF-268 CNS, 3.9 µM; in the assay with EKVX NSCLC, 2.13 µM. Moreover, the TGI in the assay with SR leukemia came out at 4.17 µM; with SNB-19 CNS it was 16.9 µM; with UACC-62 melanoma, 4.28 µM; in the assay on M14 melanoma, 3.98 µM; with KM12 colon it was 11.4 µM; with UO-31 renal it was 4.13 µM. For the same molecule, the TGI was determined as 16 µM in the assay with NCI-H226 lung, 11.7 µM in the assay on PC-3 prostate, 16 µM in the assay on SF-268 CNS and 6.51 µM with EKVX NSCLC.
Turning to `c1cc2c(ncc3cscc32)s1`, the TGI was above 100 µM in the assay with SR leukemia; above 100 µM in the assay with SNB-19 CNS; above 31.6 µM in the assay on UACC-62 melanoma; above 100 µM in the assay with M14 melanoma; above 100 µM in the assay with KM12 colon; above 100 µM with UO-31 renal. The TGI with NCI-H226 lung, in the assay with PC-3 prostate, with SF-268 CNS and in the assay with EKVX NSCLC was above 100 µM each time.
For `CCCCCN(CCCCC)CC(O)c1ccc(Cl)c2ccccc12` (stereo not drawn), the GI50 in the assay on SR leukemia was 4.11 µM; in the assay on SNB-19 CNS, 12.7 µM; in the assay with UACC-62 melanoma it was 6.25 µM; with M14 melanoma, 4.51 µM; in the assay with KM12 colon, 6.11 µM; in the assay with UO-31 renal it was 5.16 µM. Moreover, the GI50 is 10 µM in the assay with NCI-H226 lung, 12.3 µM in the assay on PC-3 prostate, 13.5 µM with SF-268 CNS and 10.8 µM in the assay on EKVX NSCLC. Also, the TGI with SR leukemia amounted to 14.7 µM; with SNB-19 CNS, 30.1 µM; in the assay with UACC-62 melanoma it was 22.2 µM; with M14 melanoma, 18.7 µM; with KM12 colon, 25 µM; in the assay with UO-31 renal, 20.6 µM. In addition, the TGI with NCI-H226 lung was 23.1 µM; in the assay with PC-3 prostate, 31.5 µM; in the assay on SF-268 CNS, 30.1 µM; with EKVX NSCLC, 30.4 µM.
On to `Nc1ncn(C2CC(O)C(CO)O2)c(=O)n1` (stereo not drawn), for which the TGI was above 141 µM in the assay with SR leukemia; above 349 µM in the assay with SNB-19 CNS; 265 µM with UACC-62 melanoma; above 375 µM with M14 melanoma; above 281 µM in the assay on KM12 colon; above 375 µM in the assay on UO-31 renal. In addition, the TGI in the assay with NCI-H226 lung is above 331 µM; with PC-3 prostate it was above 204 µM; with SF-268 CNS, above 375 µM; in the assay with EKVX NSCLC it was above 293 µM.
Take `CS(=O)(=O)c1cc(=O)c2ccccc2s1`: the TGI in the assay with SR leukemia was found to be 8.09 µM; with SNB-19 CNS, 36.5 µM; in the assay with UACC-62 melanoma, 27.3 µM; with M14 melanoma, 3.44 µM; in the assay with KM12 colon it was 32.3 µM; in the assay with UO-31 renal, 29.4 µM. Moreover, the TGI with NCI-H226 lung turned out to be 20.3 µM; in the assay with PC-3 prostate, 33.4 µM; in the assay with SF-268 CNS it was 32.1 µM; in the assay with EKVX NSCLC it was 21.4 µM.
Regarding `COc1cc2c(c(OC)c1OC)C(=O)[C@@H]1c3ccc([N+](=O)[O-])cc3C(=O)N(CCCBr)[C@H]21`, the GI50 in the assay with SR leukemia was 3.92 µM; with SNB-19 CNS, 22 µM; in the assay with UACC-62 melanoma it was above 100 µM; with M14 melanoma it was 12.1 µM; in the assay on KM12 colon, 25.7 µM; with UO-31 renal, 4.49 µM. For the same molecule, the GI50 in the assay on NCI-H226 lung is 13.6 µM; with PC-3 prostate it was 13.1 µM; in the assay on SF-268 CNS, 8.6 µM; in the assay with EKVX NSCLC, 12.7 µM. Besides, the TGI is above 100 µM in the assay with SR leukemia; above 100 µM in the assay with SNB-19 CNS; above 100 µM with UACC-62 melanoma; 33.5 µM in the assay on M14 melanoma; above 100 µM in the assay on KM12 colon; 25.7 µM in the assay on UO-31 renal. In addition, the TGI is 49.7 µM in the assay with NCI-H226 lung, 55.6 µM with PC-3 prostate, 41.6 µM in the assay on SF-268 CNS and 61.6 µM with EKVX NSCLC.

The record behind these values is PubChem BioAssay (NCI).
